# In patent publication US4410518A, “N-Phosphinoaminosulfinylcarbamate esters and their use as insecticides” (priority 1982, dated 1983):
# Where two headings read alike, the source gives them in different places.
# Assays:
# [1] = system: house flies, Musca domestica; test: insecticidal activity against house flies (topical, 24 h mortality); type: in vivo; conditions: for LD50: Musca domestica, read-out: House flies LD50
# Method: Representative carbamate esters of the invention were tested for insecticidal activity against house flies, Musca domestica. Stock 1% concentrated solutions of each of the test compounds were made in acetone, and such solutions diluted with acetone to a concentration of 0.001-0.1%. House flies were treated topically on the notum by 1 μl of each of the diluted acetone solutions and percent mortality was counted 24 hours after application. The insects were held at a constant temperature of 60° F. Results are given in μg/g.
# (§1) In that table the term "LD50 " represents the dose needed to kill 50% of the test animals. In interpreting the values in Table 1 below, the lower the value for LD50 for house flies, the greater the insecticidal potency or toxicity of that particular compound. On the other hand, the higher the value of LD50 for mice, the lower the mammalian toxicity or the greater is the mammalian safety of such compound.
# [2] = mammalian toxicity in mice (oral); conditions: mouse, in vivo, corn oil carrier, Swiss white mice
# Method: Mammalian toxicity was determined against Swiss white mice. The test compound was applied orally using corn oil as the carrier. Results are given as LD50 in mg of compound per kg body weight.
# as §1
# [3] = system: house flies, Musca domestica; conditions: 'is known to have', no unit printed beside the value; cited from earlier work
# [4] = topical on the notum, 1 μl acetone solution, 24 hours after application
SMILES,"LD50 [1, 4] [mg/kg]",LD50 [2] [mg/kg],also measured
"CCCN([S+]([O-])N(C)C(=O)ON=C(C)SC)P(=S)(OCC)OCC (centres unmarked) [Example 13, methyl N-[[[[[(diethoxyphosphinothioyl)propylamino]sulfinyl]methylamino]carbonyl]oxy]ethanimidothioate]",8,120,
"CNC(=O)Oc1cccc2c1OC(C)(C)C2 [carbofuran, 2,3-dihydro-2,2-dimethyl-7-benzofuranyl methylcarbamate]",,,"LD50 for house flies (carbofuran, known) [3]: about 6.5"
"CCOP(=S)(OCC)N(C1CCCC1)[S+]([O-])N(C)C(=O)ON=C(C)SC (centres unmarked) [Example 16, methyl N-[[[[[(diethoxyphosphinothioyl)cyclopentylamino]sulfinyl]methylamino]carbonyl]oxy]ethanimidothioate]",12,,
"CCCN([S+]([O-])N(C)C(=O)Oc1cccc2c1OC(C)(C)C2)P(=O)(OCC)OCC (centres unmarked) [Example 8, 2,3-dihydro-2,2-dimethyl-7-benzofuranyl[[(diethoxyphosphinyl)propylamino]sulfinyl]methylcarbamate]",,100,
"CCCN([S+]([O-])N(C)C(=O)Oc1cccc2c1OC(C)(C)C2)P(=S)(OCC)OCC (centres unmarked) [Example 2, 2,3-dihydro-2,2-dimethyl-7-benzofuranyl[[(diethoxyphosphinothioyl)propylamino]sulfinyl]methylcarbamate]",16,60,
"CCOP(=S)(OCC)N(C)[S+]([O-])N(C)C(=O)ON=C(C)SC (centres unmarked) [Example 11, methyl N-[[[[[(diethoxyphosphinothioyl)methylamino]sulfinyl]methylamino]carbonyl]oxy]ethanimidothioate]",12,130,
"CN(C(=O)Oc1cccc2c1OC(C)(C)C2)[S+]([O-])N(C)P1(=S)OCC(C)(C)CO1 (centres unmarked) [Example 5, 2,3-Dihydro-2,2-dimethyl-7-benzofuranyl[[(5,5-dimethyl-2-thioxo-1,3,2-dioxaphosphorinan-2-yl)methylamino]sulfinyl]methylcarbamate]",3,70,
"CCOP(=S)(OCC)N(C)[S+]([O-])N(C)C(=O)ON=C(SC)C(=O)N(C)C (centres unmarked) [Example 21, methyl 2-(dimethylamino)-N-[[[[[(diethoxyphosphinothioyl)methylamino]sulfinyl]methylamino]carbonyl]oxy]-2-oxoethanimidothioate]",15,23,
"CCN([S+]([O-])N(C)C(=O)ON=C(C)SC)P1(=S)OCC(C)(C)CO1 (centres unmarked) [Example 20, methyl N-[[[[[(5,5-dimethyl-2-thioxo-1,3,2-dioxaphosphorinan-2-yl)(ethyl)amino]sulfinyl]methylamino]carbonyl]oxy]ethanimidothioate]",120,,
"CCOP(=O)(OCC)N(C)[S+]([O-])N(C)C(=O)Oc1cccc2c1OC(C)(C)C2 (centres unmarked) [Example 7, 2,3-dihydro-2,2-dimethyl-7-benzofuranyl[[(diethoxyphosphinyl)methylamino]sulfinyl]methylcarbamate]",,,"LD50 ([1]; topical, 24 h): 19 mg/kg"
"CCOP(=S)(OCC)N(C1CCCCC1)[S+]([O-])N(C)C(=O)ON=C(C)SC (centres unmarked) [Example 18, methyl N-[[[[[(diethoxyphosphinothioyl)cyclohexylamino]sulfinyl]methylamino]carbonyl]oxy]ethanimidothioate]",18,,
"CCOP(=S)(OCC)N(C(C)C)[S+]([O-])N(C)C(=O)ON=C(C)SC (centres unmarked) [Example 14, methyl N-[[[[[(diethoxyphosphinothioyl)isopropylamino]sulfinyl]methylamino]carbonyl]oxy]ethanimidothioate]",11,,
"COP(=S)(OC)N(C)[S+]([O-])N(C)C(=O)ON=C(C)SC (centres unmarked) [Example 9, methyl N-[[[[[(dimethoxyphosphinothioyl)methylamino]sulfinyl]methylamino]carbonyl]oxy]ethanimidothioate]",24,120,
"CCCCCCN([S+]([O-])N(C)C(=O)Oc1cccc2c1OC(C)(C)C2)P(=S)(OCC)OCC (centres unmarked) [Example 3, 2,3-dihydro-2,2-dimethyl-7-benzofuranyl[[(diethoxyphosphinothioyl)hexylamino]sulfinyl]methylcarbamate]",,140,"House flies LD50 [1, 4]: 19 µg/g"
"CSC(=NOC(=O)N(C)[S+]([O-])N(C)P1(=S)OCC(C)(C)CO1)C(=O)N(C)C (centres unmarked) [Example 25, methyl 2-(dimethylamino)-N-[[[[[(5,5-dimethyl-2-thioxo-1,3,2-dioxaphosphorinan-2-yl)(methyl)amino]sulfinyl]methylamino]carbonyl]oxy]-2-oxoethanimidothioate]",150,25,
"CCOP(=S)(OCC)N(CC)[S+]([O-])N(C)C(=O)ON=C(SC)C(=O)N(C)C (centres unmarked) [Example 22, methyl 2-(dimethylamino)-N-[[[[[(diethoxyphosphinothioyl)ethylamino]sulfinyl]methylamino]carbonyl]oxy]-2-oxoethanimidothioate]",18,,
"CCN([S+]([O-])N(C)C(=O)ON=C(C)SC)P(=S)(OC)OC (centres unmarked) [Example 10, methyl N-[[[[[(dimethoxyphosphinothioyl)ethylamino]sulfinyl]methylamino]carbonyl]oxy]ethanimidothioate]",14,,
"CCCCCCCCCCCCN([S+]([O-])N(C)C(=O)Oc1cccc2c1OC(C)(C)C2)P(=S)(OCC)OCC (centres unmarked) [Example 4, 2,3-dihydro-2,2-dimethyl-7-benzofuranyl[[(diethoxyphosphinothioyl)dodecylamino]sulfinyl]methylcarbamate]",,> 1000,
"CCOP(=S)(OCC)N(C(C)C)[S+]([O-])N(C)C(=O)ON=C(SC)C(=O)N(C)C (centres unmarked) [Example 23, methyl 2-(dimethylamino)-N-[[[[[(diethoxyphosphinothioyl)isopropylamino]sulfinyl]methylamino]carbonyl]oxy]-2-oxoethanimidothioate]",10,22,
"CCOP(=S)(OCC)N(C(C)CC)[S+]([O-])N(C)C(=O)ON=C(C)SC (centres unmarked) [Example 15, methyl N-[[[[[(diethoxyphosphinothioyl)sec-butylamino]sulfinyl]methylamino]carbonyl]oxy]ethanimidothioate]",10,,
"CCOP(=S)(OCC)N(C)[S+]([O-])N(C)C(=O)Oc1cccc2c1OC(C)(C)C2 (centres unmarked) [Example 1, 2,3-dihydro-2,2-dimethyl-7-benzofuranyl[[(diethoxyphosphinothioyl)methylamino]sulfinyl]methylcarbamate]",14,65,
"CCCCCCN([S+]([O-])N(C)C(=O)Oc1cccc2c1OC(C)(C)C2)P1(=S)OCC(C)(C)CO1 (centres unmarked) [Example 6, 2,3-dihydro-2,2-dimethyl-7-benzofuranyl[[(5,5-dimethyl-2-thioxo-1,3,2-dioxaphosphorinan-2-yl)hexylamino]sulfinyl]methylcarbamate]",,105,
"CSC(C)=NOC(=O)N(C)[S+]([O-])N(C)P1(=S)OCC(C)(C)CO1 (centres unmarked) [Example 19, methyl N-[[[[[(5,5-dimethyl-2-thioxo-1,3,2-dioxaphosphorinan-2-yl)(methyl)amino]sulfinyl]methylamino]carbonyl]oxy]ethanimidothioate]",58,200,
"CCOP(=S)(OCC)N(CC)[S+]([O-])N(C)C(=O)ON=C(C)SC (centres unmarked) [Example 12, methyl N-[[[[[(diethoxyphosphinothioyl)ethylamino]sulfinyl]methylamino]carbonyl]oxy]ethanimidothioate]",13,,
"CCOP(=S)(OCC)N(C1CCCC1)[S+]([O-])N(C)C(=O)ON=C(SC)C(=O)N(C)C (centres unmarked) [Example 24, Methyl 2-(dimethylamino)-N-[[[[[(diethoxyphosphinothioyl)cyclopentylamino]sulfinyl]methylamino]carbonyl]oxy]-2-oxoethanimidothioate]",16,,
"CCCCCCN([S+]([O-])N(C)C(=O)ON=C(C)SC)P(=S)(OCC)OCC (centres unmarked) [Example 17, Methyl N-[[[[[(diethoxyphosphinothioyl)hexylamino]sulfinyl]methylamino]carbonyl]oxy]ethanimidothioate]",23,250,
